Reference: the METLIN SMRT retention time set (Domingo-Almenara et al. 2019)

Assay: gradient 5% acetonitrile 3 min, to 50% in 2 min, to 85% in 15 min, held 3 min, 100 µL/min
Settings: column: Zorbax Extend-C18 2.1 x 50 mm; eluents: water / acetonitrile, 0.1% formic acid
Outline: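 The mobile phases were water and acetonitrile, each with 0.1% formic acid, pumped at 100 μL/min through a Zorbax Extend-C18 column (2.1 × 50 mm, 1.8 μm). Pure standards were injected as mixtures of ~100 molecules and detected by a quadrupole time-of-flight mass spectrometer in positive and negative ionization mode. Retention time came from computationally picked adduct peaks, each inspected by hand.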
In the case of `O=C(c1c2c(nn1C1CCS(=O)(=O)C1)CCC2)N1CCC(Cc2ccccc2)CC1` (stereo unspecified), the RP-LC retention time is reported as 849 s. Work on `COc1ccccc1N1CCN(CCCNc2cc(=O)n(C)c(=O)n2C)CC1` yielded an RP-LC retention time of 637 s. `CCn1ccc(C(=O)N2CC(Oc3ccc(-c4nc(-c5ccccc5)no4)cc3)C2)n1` gave an RP-LC retention time of 1130 s. `Cc1ccc(C)c(-c2cc3c(=O)n(Cc4nc(-c5ccccc5Br)no4)ncn3n2)c1` showed an RP-LC retention time of 1220 s. Molecule `O=C1CC(c2nc(-c3ccccn3)no2)CN1c1ccc2c(c1)OCO2` (stereo unspecified) has an RP-LC retention time of 707 s. Molecule `CCCCc1c(-c2ccc(OC)cc2)[nH]c2nccnc12` has an RP-LC retention time of 912 s. In the case of `CCc1sc(NC(=O)c2cccc(NC(=O)C(CC)CC)c2)nc1-c1ccccc1`, the RP-LC retention time is reported as 1170 s. With `CCC(=O)Nc1cccn2nc(CC)nc12` the RP-LC retention time was 657 s. With `Cc1ccccc1CNC(=O)C1(C)CCCN(C(=O)Nc2ccccc2C(F)(F)F)C1` (stereo unspecified) the RP-LC retention time was 1010 s. `CCOc1ccc(-c2noc(Cn3cnc4c(cnn4-c4ccc(OC)cc4)c3=O)n2)cc1OC` gave an RP-LC retention time of 973 s. `Cc1cccc(C(C)c2cnc[nH]2)c1C` (stereo unspecified) showed an RP-LC retention time of 689 s. `COc1cc(N2CCN(C(=O)c3cnccn3)CC2)nc(C)n1` gave an RP-LC retention time of 515 s. `CC(=O)Nc1ccc(S(=O)(=O)N2CCN(S(=O)(=O)N(C)C)CC2)cc1` showed an RP-LC retention time of 653 s. With `COc1ccccc1CCC(=O)N1CCN(c2cc(-c3cccs3)[nH]n2)CC1` the RP-LC retention time was 838 s. For `CCOc1ccc(Oc2cc3c(cc2NC(=O)COc2ccc(C)cc2)n(C)c(=O)c(=O)n3C)cc1`, the RP-LC retention time was 1030 s. In the case of `CCCNC(=O)C1CCN(c2ccc(SCC(=O)NCCc3ccc(Cl)cc3)nn2)CC1`, the RP-LC retention time is reported as 663 s. `CCCN1C(=O)C(CC(=O)NCCOC)Sc2ncccc21` (stereo unspecified) gave an RP-LC retention time of 632 s. In the case of `Cc1cc(NC(=O)N2CCC(n3cnc4cccnc43)CC2)ccc1Br`, the RP-LC retention time is reported as 684 s. In the case of `CCn1c(=O)n(CC)c2cc(N3CCCC3)c(NC(=O)CC(=O)OC)cc21`, the RP-LC retention time is reported as 583 s. `CN(c1ccc(F)cc1)S(=O)(=O)N1CCCC(C(=O)N2CCN(c3ccccn3)CC2)C1` (stereo unspecified) showed an RP-LC retention time of 660 s. With `COc1ccccc1OCCC1CCN(C(=O)CCS(=O)(=O)c2ccc3c(c2)CCN3C(C)=O)C1` (stereo unspecified) the RP-LC retention time was 788 s. `Cc1ccc(Cn2c(=O)c(N3CCN(C(=O)NCc4ccco4)CC3)nc3ccccc32)cc1` showed an RP-LC retention time of 1010 s. Molecule `O=C(Nc1ccc2c(c1)OCCO2)c1cc(-c2ccncc2)n[nH]1` has an RP-LC retention time of 606 s. Molecule `Cc1nc2cccnc2n1C1CCN(C(=O)C2CCCCC2)C1` (stereo unspecified) has an RP-LC retention time of 591 s. For `CCSCCOC(=O)C1=C(C)NC(=O)NC1c1cccc(OC)c1OC` (stereo unspecified), the RP-LC retention time was 792 s. In the case of `COc1cc([C@@H]2c3cc4c(cc3[C@H](O)[C@@H](CO)[C@@H]2C(=O)N2CCN(C)CC2)OCO4)cc(OC)c1OC`, the RP-LC retention time is reported as 600 s. Molecule `CC(C)Cn1c(=O)c2cc(C(=O)N3CCSCC3)nn2c2ccccc21` has an RP-LC retention time of 955 s. Molecule `CCCCOc1ccc(-c2nc(C3CC(=O)N(c4ccc(C)cc4)C3)no2)cc1` (stereo unspecified) has an RP-LC retention time of 1310 s. `O=C([C@@H]1C[C@H](Oc2ccccc2)CN1C(=O)c1cccs1)N1CCCC1` gave an RP-LC retention time of 767 s. Molecule `Cc1sc(-c2noc(C3CCC3)n2)cc1S(=O)(=O)N1CCC(C(=O)N2CCCCCC2)CC1` has an RP-LC retention time of 1180 s. For `COc1ccc(-c2ncc3c(n2)CCN(S(=O)(=O)c2cccc(F)c2)C3)cc1`, the RP-LC retention time was 1060 s. `CCOc1ccc(-c2c(C)nn3c(C)c(C(=O)NCCCN4CCCC4=O)cnc23)cc1OCC` showed an RP-LC retention time of 744 s. With `Cc1nc(-c2ccc(S(=O)(=O)Nc3ccc(S(N)(=O)=O)cc3)cc2)co1` the RP-LC retention time was 706 s. Molecule `CCCNC(=O)C1CCN(c2ccc(SCC(=O)Nc3cc(F)ccc3F)nn2)CC1` has an RP-LC retention time of 670 s. `COc1ccc(Cl)cc1NS(=O)(=O)c1ccc(-c2nnc(C3CCC3)o2)o1` showed an RP-LC retention time of 958 s. For `COc1cc(NC(=O)N2CCC(N3CCN(Cc4ccc(C)cc4)C(=O)C3=O)CC2)cc(OC)c1`, the RP-LC retention time was 758 s.
